Columns and labels:
BTK recombinant protein = BTK recombinant protein (Homo sapiens (Human), UniProt Q06187); test: Determination of biochemical BTK (Z'-LYTE kinase assay); settings: 32 μM ATP
[1] = tested on: rat arthritis model induced by type II collagen; test: Rat arthritis model induced by type II collagen (CIA), paw volume; format: in vivo; settings: for inhibition ratio of area under the curve (IRAUC) of paw swelling: Day 13 to Day 19
Protocol: An appropriate amount of bovine type II collagen (CII, Chondrex (Redmond, WA, USA), Cat #20021) was weighed and dissolved in 0.1 mole of acetic acid (SPGC Sinopharm Chemical Reagent Co., Ltd (Shanghai, P.R. China), Cat #: 10000218.), which was formulated into a solution with a concentration of 6 mg/mL, stirred at 4° C. overnight, and added with an equal volume of Freund's incomplete adjuvant (Sigma-Aldrich. (St. Louis, MO, USA), Cat #: SLBW0366.), fully emulsified to prepare an emulsion with a CII concentration of 3 mg/mL.
Female Lewis rats were purchased from Beijing Vital River Laboratory Animal Technology Co., Ltd. (certificate number 20200928Aazz0619000579, initial body weight of 110-130 grams), and 6 rats were randomly selected as a normal group; and all of the remaining rats were immunized. In the first immunization on day 0, the rats except those in the normal group were anesthetized with isoflurane (Hebei Yipin Pharmaceutical Co., Ltd., Lot: C002170601.), and then disinfected with 75% alcohol, and 0.2 mL of emulsion was injected intradermally at the base of the tail thereof. A second challenge was carried out on day 7, and 0.2 mL of emulsion was intradermally injected using the same method. Once the animals developed symptoms on day 10, the incidence conditions thereof were closely monitored.
After grouping, the normal group was not administered, and the rats in the other groups were administered with the control vehicle, 0.25 mg/kg and 4 mg/kg of the reference GDC-0853, and each dose of compound 1 orally once a day until the end of the experiment.
The paw volume was measured on day 10 after immunization, and the left and right hind paw volumes (V) were measured every day after the paw volume increase was detected.
The arthrosis paw volumes of the left and right hind limbs of each animal were measured, and the average paw volume (APV) was calculated according to the following formula:
Average paw volume APV=(Vleft+Vright)/2
The average arthrosis paw volume of each animal before administration was used as the baseline (or considered […] of inflammation). The averaged paw swelling (APS) of each animal is calculated according to the following formula, wherein, APVd1 is the average paw volume of the animal administered on day 1, and APVdt is the average paw volume of the animal administered on day t:
The averaged paw swelling APSdt=(APVdt−APVd1)
The area under the curve (AUC) of the average paw volume swelling is the area under the curve of the arthrosis score swelling calculated by the trapezoid method, and the calculation formula is:
AUCAPS=½×(APSd1+APSd2)×(d2−d1)+½×(APSd2+APSd3)×(d3−d2)+ . . . +½×(APSdn+APSd(n-1))×(dn−dn-1).
Inhibition ratio IRAUC%=(Mean AUCAPS in the model group−AUCAPS in the drug-treated group)/(Mean AUCAPS in the model group−Mean AUCAPS in the normal group)×100%.

Chain of BTK recombinant protein (Q06187 whole entry): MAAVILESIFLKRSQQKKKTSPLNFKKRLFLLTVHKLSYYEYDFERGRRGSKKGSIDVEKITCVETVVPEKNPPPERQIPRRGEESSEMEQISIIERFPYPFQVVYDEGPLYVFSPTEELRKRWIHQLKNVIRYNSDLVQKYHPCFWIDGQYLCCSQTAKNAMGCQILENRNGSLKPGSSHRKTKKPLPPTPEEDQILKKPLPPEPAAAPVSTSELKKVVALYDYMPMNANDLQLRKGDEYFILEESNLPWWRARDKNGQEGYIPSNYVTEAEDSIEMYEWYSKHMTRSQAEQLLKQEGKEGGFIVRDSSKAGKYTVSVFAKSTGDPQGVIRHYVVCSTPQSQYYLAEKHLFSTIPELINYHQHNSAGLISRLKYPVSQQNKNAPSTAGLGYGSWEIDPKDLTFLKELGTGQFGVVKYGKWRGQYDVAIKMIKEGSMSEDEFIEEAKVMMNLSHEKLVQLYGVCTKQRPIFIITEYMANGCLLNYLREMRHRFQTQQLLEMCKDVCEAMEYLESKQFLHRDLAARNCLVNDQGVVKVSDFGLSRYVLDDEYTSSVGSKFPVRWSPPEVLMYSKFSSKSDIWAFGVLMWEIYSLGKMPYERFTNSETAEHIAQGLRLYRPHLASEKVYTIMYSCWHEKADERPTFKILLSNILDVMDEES

SMILES: C[C@H]1CN(C2COC2)C[C@H](C)N1c1ccc(Nc2cc(-c3ccnc(-n4ccn5c6c(cc5c4=O)CC(C)(C)C6)c3CO)cn(C)c2=O)nc1 [Compound 1, 2-(5-((5-((2S,6S)-2,6-dimethyl-4-(oxetan-3-yl)piperazin-1-yl)pyridin-2-yl)amino)-3′-(hydroxymethyl)-1-methyl-6-oxo-1,6-dihydro-[3,4′-bipyridin]-2′-yl)-7,7-dimethyl-7,8-dihydro-2H-cyclopenta[4,5]pyrrolo[1,2-a]pyrazin-1(6H)-one]
- IC50 (BTK recombinant protein): 10 nM
- inhibition ratio of area under the curve (IRAUC) of paw swelling ([1]; 0.06 mg/kg oral QD): 76.2%
- effect on paw volume compared with vehicle control group ([1]; 0.25 mg/kg oral QD): significantly increase the continuous improvement of paw volume swelling
- inhibition ratio of area under the curve (IRAUC) of paw swelling ([1]; 0.25 mg/kg oral QD): 83.1%
- effect on paw volume compared with vehicle control group ([1]; 4 mg/kg oral QD): significantly increase the continuous improvement of paw volume swelling
- inhibition ratio of area under the curve (IRAUC) of paw swelling ([1]; 4 mg/kg oral QD): 200.2%
- minimum effective dose ([1]; oral QD, paw swelling): 0.06 mg/kg/day
